Source: the supplement of paper PMC11208160

Test: recombinant barcode read abundance after kanamycin selection (control-corrected) (log10(CPM+1)); higher = more efficient recombination; sequences stand for … in AGTGCAGAGAAAATCGGCCAGTTTTCTCTGCCTGCAGTCCGCATGCCGT…AGATTTATGCAGCGGACTGCCTTTCTCCCAAAGTGATAAACCGGACAGTATCATGGACCGGTTTTCCCGGTAATCCGTATTTGCAAGGTTGGTTTCACT; site = the 11-nt target
Method in brief: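 Pooled oligos, each joining a target to an IS621 bridge RNA target-binding loop, were cloned and co-electroporated with a donor plasmid into E. coli. Selective plates carried chloramphenicol/ampicillin/kanamycin and 0.1 mM IPTG, while chloramphenicol/ampicillin LB agar served as control, with two replicates of each. Recombination efficiency rests on averaged, control-corrected counts per million of barcodes at recombinant junctions, shown as log10(CPM+1).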
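Further: IS621 recombinase and bridge RNA in Escherichia coli cells.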

| Sequence | recombinant barcode read abundance (log10) |
| --- | --- |
| CGCTCGTCTTGGGTTCTAACCTGTTGCCT (site CGCTGGTCTAG) | 0.0376 |
| CGCTCGTCTTGGGTTCTAACCTGTTGCCT (site CGCTTGTCTAG) | 0.163 |
| CGCTGTCCTTGGGTTCTAACCTGTTGCTT (site CGCTGACCTAA) | 0.156 |
| CGCTGTCCTTGGGTTCTAACCTGTTGCTT (site CGCTGCCCTAA) | 0.148 |
| CGCTGTCCTTGGGTTCTAACCTGTTGCTT (site CGCTGGCCTAA) | 0.348 |
| CGCTGTCCTTGGGTTCTAACCTGTTGCTT (site CGCTGTCCTAA) | 0.176 |
| CGGAACCCTTGGGTTCTAACCTGTTGCCG (site CGGAACCCTCG) | 1.22 |
| CGGAACCCTTGGGTTCTAACCTGTTGCCG (site CGGAGCCCTTG) | 0.11 |
| CGGAAGACTTGGGTTCTAACCTGTTGCCT (site CGGAAGACTAG) | 1.98 |
| CGGAAGACTTGGGTTCTAACCTGTTGCCT (site CGGAAGCCTAG) | 0.121 |
| CGGAAGACTTGGGTTCTAACCTGTTGCCT (site CGGAAGGCTAG) | 0.537 |
| CGGAAGACTTGGGTTCTAACCTGTTGCCT (site CGGAAGTCTAG) | 0.516 |
| CGGAAGCCTTGGGTTCTAACCTGTTGCCT (site CGGAAGACTAG) | 0.0744 |
| CGGAAGCCTTGGGTTCTAACCTGTTGCCT (site CGGAAGCCTAG) | 1.74 |
| CGGAAGCCTTGGGTTCTAACCTGTTGCCT (site CGGAAGGCTAG) | 0.0821 |
| CGGAAGCCTTGGGTTCTAACCTGTTGCCT (site CGGAAGTCTAG) | 0.818 |
| CGGAAGGCTTGGGTTCTAACCTGTTGCCT (site CGGAAGACTAG) | 0.036 |
| CGGAAGGCTTGGGTTCTAACCTGTTGCCT (site CGGAAGCCTAG) | 0.0918 |
| CGGAAGGCTTGGGTTCTAACCTGTTGCCT (site CGGAAGGCTAG) | 0.89 |
| CGGAAGGCTTGGGTTCTAACCTGTTGCCT (site CGGAAGTCTAG) | 0.401 |
| CGGAATCCTTGGGTTCTAACCTGTTGCGT (site CGGAATCCTAA) | 0.159 |
| CGGAATCCTTGGGTTCTAACCTGTTGCGT (site CGGAATCCTAC) | 2.33 |

| Sequence | recombinant barcode read abundance (log10) |
| --- | --- |
| CGGAATCCTTGGGTTCTAACCTGTTGCGT (site CGGAATCCTAG) | 0.345 |
| CGGAATCCTTGGGTTCTAACCTGTTGCGT (site CGGAATCCTAT) | 1.19 |
| CGGACGTCTTGGGTTCTAACCTGTTGCTG (site CGGACGTCTCA) | 1.69 |
| CGGACGTCTTGGGTTCTAACCTGTTGCTG (site CGGGCGTCTAA) | 0.0605 |
| CGGACTGCTTGGGTTCTAACCTGTTGCCT (site ACCTGACCTCC) | 0.0853 |
| CGGACTGCTTGGGTTCTAACCTGTTGCCT (site CGGACTGCTAG) | 0.374 |
| CGGAGCCCTTGGGTTCTAACCTGTTGCCA (site CGGAACCCTCG) | 0.0889 |
| CGGAGCCCTTGGGTTCTAACCTGTTGCCA (site CGGAGCCCTTG) | 0.883 |
| CGGAGTCCTTGGGTTCTAACCTGTTGCTA (site CGGAGTCCTTA) | 0.774 |
| CGGAGTCCTTGGGTTCTAACCTGTTGCTA (site CGGCGTCCTTA) | 0.113 |
| CGGAGTCCTTGGGTTCTAACCTGTTGCTA (site CGGGGTCCTTA) | 0.0775 |
| CGGAGTCCTTGGGTTCTAACCTGTTGCTA (site CGGTGTCCTTA) | 0.102 |
| CGGCAGTCTTGGGTTCTAACCTGTTGCGT (site CGACAGTCTAC) | 2.34 |
| CGGCAGTCTTGGGTTCTAACCTGTTGCGT (site CGGCAGTCTAC) | 2.6 |
| CGGCCCTCTTGGGTTCTAACCTGTTGCCT (site CAGCCCTCTAG) | 1.23 |
| CGGCCCTCTTGGGTTCTAACCTGTTGCCT (site CCGCCCTCTAG) | 0.29 |
| CGGCCCTCTTGGGTTCTAACCTGTTGCCT (site CGGCCCTCTAG) | 2.52 |
| CGGCCCTCTTGGGTTCTAACCTGTTGCCT (site CTGCCCTCTAG) | 0.185 |
| CGGCCGACTTGGGTTCTAACCTGTTGCGG (site CGGCCGACTCC) | 2.36 |
| CGGCCGACTTGGGTTCTAACCTGTTGCGG (site CGGGCGCCTCC) | 0.184 |
| CGGCTATCTTGGGTTCTAACCTGTTGCCT (site CGGCTATCTAG) | 0.194 |
| CGGCTATCTTGGGTTCTAACCTGTTGCCT (site TGGCTATCTAG) | 0.0495 |

| Sequence | recombinant barcode read abundance (log10) |
| --- | --- |
| CGGCTCACTTGGGTTCTAACCTGTTGCCT (site CGGCTCACTAG) | 1.66 |
| CGGCTCACTTGGGTTCTAACCTGTTGCCT (site CGGCTGACTAG) | 0.123 |
| CGGGAAGCTTGGGTTCTAACCTGTTGCCT (site CGGGAAGCTAG) | 1.61 |
| CGGGAAGCTTGGGTTCTAACCTGTTGCCT (site CGGGGAGCTCG) | 0.287 |
| CGGGACCCTTGGGTTCTAACCTGTTGCCT (site CGGGACCCTAG) | 1.26 |
| CGGGACCCTTGGGTTCTAACCTGTTGCCT (site CGTGACCCTAA) | 0.634 |
| CGGGCAGCTTGGGTTCTAACCTGTTGCCT (site CGAGCAGCTAG) | 0.0303 |
| CGGGCAGCTTGGGTTCTAACCTGTTGCCT (site CGCGCAGCTAG) | 0.0844 |
| CGGGCAGCTTGGGTTCTAACCTGTTGCCT (site CGGGCAGCTAG) | 0.0664 |
| CGGGCAGCTTGGGTTCTAACCTGTTGCCT (site CGTGCAGCTAG) | 0.156 |
| CGGGCCACTTGGGTTCTAACCTGTTGCGT (site CGGCCCACTCC) | 0.175 |
| CGGGCCACTTGGGTTCTAACCTGTTGCGT (site CGGGCCACTAC) | 2.99 |
| CGGGCGTCTTGGGTTCTAACCTGTTGCTT (site CGGACGTCTCA) | 0.148 |
| CGGGCGTCTTGGGTTCTAACCTGTTGCTT (site CGGGCGTCTAA) | 1.46 |
| CGGTCCTCTTGGGTTCTAACCTGTTGCGC (site CGGGCCTCTGT) | 0.0542 |
| CGGTCCTCTTGGGTTCTAACCTGTTGCGC (site CGGTCCTCTGC) | 2.63 |
| CGGTCTACTTGGGTTCTAACCTGTTGCCT (site CAGTCTACTAG) | 0.0894 |
| CGGTCTACTTGGGTTCTAACCTGTTGCCT (site CCGTCTACTAG) | 0.264 |
| CGGTCTACTTGGGTTCTAACCTGTTGCCT (site CGGTCTACTAG) | 0.219 |
| CGGTCTACTTGGGTTCTAACCTGTTGCCT (site CTGTCTACTAG) | 0.0592 |
| CGGTCTGCTTGGGTTCTAACCTGTTGCAT (site CGGTCTGCTAT) | 0.826 |
| CGGTCTGCTTGGGTTCTAACCTGTTGCAT (site GCTAGGACTCA) | 0.217 |
